We go through 5 compounds from patent US10633397B2, “Substituted polycyclic pyridone derivatives and prodrugs thereof” (priority 2015, dated 2020).

Data set [1] can be described thus: Plasma concentration after oral administration of prodrug Compound II-6. Particulars: after oral administration of Compound II-6 to rat under non-fasting conditions, all plasma samples. It counts as in vivo. From the text:
FIG. 1 is a result of measuring the plasma concentration of compound III-2, after oral administration of prodrug Compound II-6, the parent compound of which is Compound III-2, to rat under non-fasting conditions.
FIG. 2 is a result of measuring the plasma concentration of compound II-6, after oral administration of prodrug Compound II-6, the parent compound of which is Compound III-2, to rat under non-fasting conditions.
FIGS. 1 and 2 show a result of measuring the plasma concentration of Compound III-2 and Compound II-6 after oral administration of prodrug Compound II-6, the parent compound of which is Compound III-2, to rat under non-fasting conditions.
Therefore, prodrug Compound II-6, the parent compound of which is Compound III-2 is found to have changed promptly to Compound III-2 in vivo after administration (see FIG. 2).

Another data set is described as follows: in vivo. Particulars: oral vs intravenous administration, mice or SD rats, read-out: bioavailability (BA). How it is done:
Materials and Methods for Experiments to Evaluate Oral Absorption
(1) Experimental animals: mice or SD rats were used.
(2) Rearing condition: mice or SD rats were allowed free access to solid feed and sterilized tap water.
(3) Setting of dosage and grouping: Oral administration and intravenous administration were performed with the predetermined dosage. Grouping was set as below. (Dosage was changed per compound)
Oral administration 1 to 30 mg/kg (n=2 to 3)
Intravenous administration 0.5 to 10 mg/kg (n=2 to 3)
(4) Preparation of administration solutions: Oral administration was performed as solution or suspension. Intravenous administration was performed after solubilization.
(5) Routes of administration: Oral administration was performed mandatory into the stomach by oral sonde. […]
(6) Evaluation items: Blood was collected serially and concentration of a compound of the present invention in plasma was measured by LC/MS/MS.
(7) Statistical analysis: About transition of concentration of a compound of the present invention in plasma, the area under the plasma concentration versus time curve (AUC) was calculated by non-linear least-squares method program, WinNonlin (a registered trademark), and bioavailability (BA) of a compound of the present invention was calculated from AUCs of the oral administration group and the intravenous administration group. […]

The test system of the next data set is influenza virus. As to the kind of experiment: CPE inhibitory effect confirming assay. Particulars: unidentified influenza virus, 72 h, read-out: CPE_EC50. The class given is cell-based.
The target of data set [2] is cap-dependent endonuclease (RNP fraction, PB1-PB2-PA complex) (Influenza A virus, UniProt P15659). As to the kind of experiment: Measurement of cap-dependant endonuclease (CEN) inhibitory activity. The class given is biochemical. To be noted: RNP from A/WSN/33 virus, room temperature 60 minutes; read-out: CEN_IC50.

In the case of `COC(=O)OCOc1c2n(ccc1=O)N([C@@H]1c3ccccc3SCc3c1ccc(F)c3F)[C@@H]1COCCN1C2=O` [II-6], in data set [1], the “concentration of Compound II-6 in plasma” value is given as “a determination limit or less”. Besides, the bioavailability in “in vivo” turned out to be 14.9%.
As for `CC1(C)CCN2C(=O)c3c(O)c(=O)ccn3N([C@H]3c4ccc(F)cc4CSc4ccccc43)[C@@H]2C1` [III-47], the EC50 with influenza virus turned out to be 2.53 nM. In addition, the IC50 in data set [2] stood at 2.25 nM.
The matching figures for `O=C1c2c(O)c(=O)ccn2N([C@@H]2c3ccccc3SCc3c(Cl)cccc32)[C@@H]2COCCN12` [III-4]: 2.08 nM and 2.81 nM.
For `O=C1c2c(O)c(=O)ccn2N([C@H]2c3cc(F)c(F)cc3CSc3ccccc32)[C@@H]2COCCN12` [III-12], in that order: 3.38 nM and 2.18 nM.
For `O=C1c2c(O)c(=O)ccn2N([C@@H]2c3ccccc3SCc3c2ccc(F)c3F)[C@@H]2CSCCN12` [III-9], in that order: 10.9 nM and 2.17 nM.

The bioavailability is the share of a dose that reaches the circulation, judged against a reference dose that is usually intravenous.
